Results on ten compounds are retold here after patent US10501421B1, “Substituted benzimidazoles as modulators of Ras signaling” (VANDERBILT UNIVERSITY, priority 2017, dated 2019).

One assay deals with T1, Son of Sevenless (SOS) (Homo sapiens, UniProt Q07889).
T1 sequence (Q07889 564-1049 limits assumed): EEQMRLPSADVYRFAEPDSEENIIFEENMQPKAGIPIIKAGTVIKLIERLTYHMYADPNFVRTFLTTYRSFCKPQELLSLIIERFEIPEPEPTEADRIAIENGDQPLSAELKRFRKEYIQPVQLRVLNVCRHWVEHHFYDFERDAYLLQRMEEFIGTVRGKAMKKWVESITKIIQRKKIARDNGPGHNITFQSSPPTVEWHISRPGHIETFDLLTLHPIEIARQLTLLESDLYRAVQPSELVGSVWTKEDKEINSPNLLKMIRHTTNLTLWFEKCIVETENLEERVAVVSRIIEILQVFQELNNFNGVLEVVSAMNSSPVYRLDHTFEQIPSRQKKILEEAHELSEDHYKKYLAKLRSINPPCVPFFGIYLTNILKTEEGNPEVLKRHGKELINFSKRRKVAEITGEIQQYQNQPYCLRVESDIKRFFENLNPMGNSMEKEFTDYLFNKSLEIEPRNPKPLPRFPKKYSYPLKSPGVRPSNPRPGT
The assay can be described thus: Binding to SOS, fluorescence polarization anisotropy (FPA) probe displacement. Particulars: displacement of FITC-conjugated probe (Example 285), affinity calculated from IC50. In a few lines:
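Test compounds were titrated against SOS pre-bound to a fluorescein-labelled probe, with anisotropy plotted versus compound concentration. Binding affinities were derived from IC50 values obtained by four-parameter dose-response fitting.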

Assay [1] addresses Ras GEF SOS (Son of Sevenless) (Homo sapiens, UniProt Q07889). Nature of the assay: SOS-mediated nucleotide exchange on Ras (BODIPY-GDP fluorescence). It is filed as biochemical. The following applies: SOS-mediated exchange of BODIPY-GDP for GTP on Ras. In a few lines:
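Exchange rates were taken from single-exponential fits of the fluorescence time course as BODIPY-GDP on Ras was replaced by GTP. Compound went in first, then GTP and SOS. Mean rates plotted against concentration gave EC50 by four-parameter dose-response fitting.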

Assay [2] concerns H727 lung cancer cell lines (G12V K-Ras mutation). Nature of the assay: Inhibition of cancer cell proliferation (CellTiter-Glo). The format is cell-based. The following applies: Homo sapiens, NCI-H727, 72 h, read-out: Cell proliferation activity (H727 cancer cell line proliferation IC50). As for the experimental part: Compounds of the present invention were measured for their ability to kill H727 lung cancer cell lines, which contain a G12V K-Ras mutation. Cell proliferation experiments were conducted in 96-well plates. Cells were plated at 1000 cells/well, incubated overnight, followed by treatment with a dose range of compound for 3 days at 37° C. Cell proliferation was assessed using a CellTiter-Glo assay (Promega) according to the manufacturer's protocol. Data were normalized to DMSO control. IC50 values were determined using a four-parameter dose-response (variable slope) equation. These assays are performed in a manner analogous to the assay disclosed in: Burns, M. C.; Sun, Q.; Daniels, R. N.; Camper, D. V.; Kennedy, J. P.; Phan, J.; Olejniczak, E. O.; Lee, T.; Waterson, A. G.; Rossanese, O. W.; Fesik, S. W. “Approach for targeting Ras with small molecules that activate SOS-mediated nucleotide exchange” Proc. Natl. Acad. Sci. 2014; 11(9): 3401-3406. PMCID: PMC3948241.

Where [3] appears, read: H727 cells, 3 days treatment, CellTiter-Glo.

The structures appear in SMILES notation. Counter-ions that a name gives are not always drawn. Like-named read-outs stand apart in the source and are kept apart here. Some results are limits rather than exact numbers.

Chain of Ras GEF SOS (Son of Sevenless) (P01112 1-166 partner limits assumed, one chain of several): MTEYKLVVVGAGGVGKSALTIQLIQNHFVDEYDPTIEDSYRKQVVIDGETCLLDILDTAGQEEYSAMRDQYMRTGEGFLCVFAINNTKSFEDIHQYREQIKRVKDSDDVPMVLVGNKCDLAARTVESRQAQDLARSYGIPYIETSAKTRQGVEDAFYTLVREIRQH

What is called Ki is the dissociation constant of the complex between target and ligand, obtained from inhibition or displacement. What is called EC50 is the concentration needed to bring the measured effect to its halfway point. The low end stands for a more potent agent, the high end for a less potent agent. For the compound `Fc1ccc(Cn2c(NCC3CNC3)nc3ccc(Cl)cc32)cc1Cl` [Example 75, N-(azetidin-3-ylmethyl)-6-chloro-1-(3-chloro-4-fluorobenzyl)-1H-benzo[d]imidazol-2-amine trifluoroacetate], the Ki on Son of Sevenless (SOS) is 1 to 5 µM. The EC50 in assay [1] was 1 to 5 µM. For the same compound, the IC50 in assay [2] was 1 to 5 µM.

`Cc1cc(C2NCCc3c2[nH]c2ccccc32)c2nc(N3CCNCC3)n(Cc3cc(C)c(F)c(C)c3)c2c1` (stereo not drawn) [Example 139, 1-(1-(4-fluoro-3,5-dimethylbenzyl)-6-methyl-2-(piperazin-1-yl)-1H-benzo[d]imidazol-4-yl)-2,3,4,9-tetrahydro-1H-pyrido[3,4-b]indole trifluoroacetate]: the Ki at Son of Sevenless (SOS) was 1 to 5 µM. This compound came in with an EC50 in assay [1] of 1 to 5 µM. Besides, the IC50 in assay [2] is 1 to 5 µM.

`COc1ccc(-c2c(C)c(C)cc3c2nc(N2CCNCC2)n3Cc2ccc(F)c(Cl)c2)cc1OC` [Example 110, 1-(3-chloro-4-fluorobenzyl)-4-(3,4-dimethoxyphenyl)-5,6-dimethyl-2-(piperazin-1-yl)-1H-benzo[d]imidazole]: the Ki at Son of Sevenless (SOS) was 1 to 5 µM. Moreover, in assay [1], the EC50 lay in the range of 1 to 5 µM. Besides, the IC50 in assay [2] (setting [3]) lay in the range of 1 to 5 µM.

In the case of `Fc1ccc(Cn2c(N3CCNCC3)nc3c(-c4cccnc4)cccc32)cc1Cl` [Example 89, 1-(3-chloro-4-fluorobenzyl)-2-(piperazin-1-yl)-4-(pyridin-3-yl)-1H-benzo[d]imidazole], on Son of Sevenless (SOS), the Ki was 1 to 5 µM. In assay [1], this compound returned an EC50 of 1 to 5 µM. Also, in assay [2] (setting [3]), the IC50 fell in the range of 5 to 20 µM.

As to `Cc1cc(CN2CCCC2)c2nc(N3CCNCC3)n(Cc3cc(C)c(F)c(C)c3)c2c1` [Example 124, 1-(4-fluoro-3,5-dimethylbenzyl)-6-methyl-2-(piperazin-1-yl)-4-(pyrrolidin-1-ylmethyl)-1H-benzo[d]imidazole trifluoroacetate], the Ki at Son of Sevenless (SOS) was 1 to 5 µM. In assay [1], this compound gave an EC50 of less than 1 µM. For the same compound, the IC50 in assay [2] is 1 to 5 µM.

For the compound `CNCc1cc(Cl)cc2c1nc(N1CCNCC1)n2Cc1cc(C)c(F)c(C)c1` [Example 129, 1-(6-chloro-1-(4-fluoro-3,5-dimethylbenzyl)-2-(piperazin-1-yl)-1H-benzo[d]imidazol-4-yl)-N-methylmethanamine trifluoroacetate], the Ki at Son of Sevenless (SOS) is less than 0.5 µM. For the same compound, the EC50 in assay [1] was less than 1 µM. For the same compound, in assay [2], the IC50 fell in the range of 1 to 5 µM.

`CC(C)c1ccccc1-c1cccc2c1nc(N1CCNCC1)n2Cc1ccc(F)c(Cl)c1` [Example 94, 1-(3-chloro-4-fluorobenzyl)-4-(2-isopropylphenyl)-2-(piperazin-1-yl)-1H-benzo[d]imidazole]: on Son of Sevenless (SOS), the Ki is 1 to 5 µM. In assay [1], the EC50 was in the range of 1 to 5 µM. Further, in assay [2] (setting [3]), the IC50 was 1 to 5 µM.

With `Cc1cc2nc(N3CCNCC3)n(Cc3ccc(F)c(C4CC4)c3)c2cc1C` [Example 51, 1-(3-cyclopropyl-4-fluorobenzyl)-5,6-dimethyl-2-(piperazin-1-yl)-1H-benzo[d]imidazole trifluoroacetate], the Ki at Son of Sevenless (SOS) is more than 5 µM. This compound also showed an EC50 in assay [1] of 5 to 30 µM. The IC50 in assay [2] fell in the range of 1 to 5 µM.

`Cc1cc(-c2ccccc2Cl)c2nc(N3CCNCC3)n(Cc3ccc(F)c(Cl)c3)c2c1` [Example 118, 1-(3-chloro-4-fluorobenzyl)-4-(2-chlorophenyl)-6-methyl-2-(piperazin-1-yl)-1H-benzo[d]imidazole trifluoroacetate]: at Son of Sevenless (SOS), the Ki was less than 0.5 µM. The same compound displayed an EC50 in assay [1] of 1 to 5 µM. For the same compound, the IC50 in assay [2] was 1 to 5 µM.

Consider `COc1ccccc1-c1cccc2c1nc(N1CCNCC1)n2Cc1ccc(F)c(Cl)c1` [Example 81, 1-(3-chloro-4-fluorobenzyl)-4-(2-methoxyphenyl)-2-(piperazin-1-yl)-1H-benzo[d]imidazole trifluoroacetate], for which the Ki at Son of Sevenless (SOS) was 0.5 to 1 µM. In addition, in assay [1], the EC50 lay within 1 to 5 µM. In addition, the IC50 in assay [2] fell in the range of 5 to 20 µM.
